Measurements: US20230000852A1, “Treatment of Dermal Cytokine Storm Syndromes” (Bridge Pharma, Inc., priority 2021, published 2023)

Experiments:
[1] = system: IMQ-induced psoriasiform hypercytokinemia; assay: Imiquimod (IMQ) induced psoriasis in mice; format: in vivo; details: for Scratching bouts: Day 6, 30 minutes observation; for Total Scores ± SEM: cumulative erythema plus scaling plus thickness; for Mean Scores of Skin Lesions: Redness / Mean Scores of Skin Lesions: Scaling / Mean Scores of Skin Lesions: Thickness: scale 0 to 4
Source text: The objective of this study was to assess the ability of NK to inhibit the IMQ-induced psoriasiform hypercytokinemia in mice. Topically applied IMQ is known to induce a psoriasis-like Cytokine Storm in mice by releasing a large number of cytokines, thereby causing a disease (hypercytokinemia) that is closely similar to psoriasis in human patients. Female BALB/c mice were used (8-11 weeks old; 4 animals/group). A psoriasiform skin condition was induced by repeated applications of an IMO-cream on the pre-shaved skin of the back of mice for 6 days, using […] 5% cream (IMQ-cream), at a dose of 62.5 mg per mouse, which is equal to 3.125 mg active per mouse. Starting from day 3 of dosing the skin was scored for Redness, Thickness and Scaling using a scoring system on the scale of 0 to 4, where 0=none; 1=slight; 2=moderate; 3=marked; and 4=very marked. The cumulative scores (erythema plus scaling plus thickness) served as a measure of the severity of dermal, psoriasis-like inflammation. […] A scratch bout was defined as one or more rapid back-and-forth hind paw motions directed toward and contacting the IMQ-treated area. • Group 1: (IMQ Positive Control Group): 4 mice were treated as described above. • Group 2: 4 mice were given NK 10 mg/kg/day, PO, starting 3 days before the first application of IMQ. • Group 3: same treatment as Group 2, but the dose of NK was 20 mg/kg/day. • Group 4: same treatment as Group 3, but the dose of NK was 30 mg/kg/day. ANOVA (Dunnett's Method)-positive control (IMQ) vs test groups. The methodology used here was the van der Fits (2009) method with minor modifications.

IL-1β = assay: PHA-induced IL-1β release from human leucocytes (buffy coats); format: cell-based; details: Leucocyte, 30 min pre-incubation, PHA 5 μg/ml 16 hours
Protocol: (§1) The objective of this study was to assess the ability of norketotifen to inhibit cytokine release from stimulated human leucocytes.
(§2) The study was conducted in two phases. The first phase included optimization of the test methodology and including dose-range finding studies, using buffy coats from 3 human donors, stimulated with phytohemagglutinin (PHA). Following optimization of the test conditions, a final protocol was issued. In the ensuing Main Study, white blood cells (buffy coats) from 5 healthy human donors were stimulated with PHA, 5 μg/ml. The concentrations of the test article and the duration of exposure were optimized to obtain acceptable dose-response ratios. Thus, the inhibitory effects of three concentrations of NK and one concentration of ketotifen were evaluated in the Main Study. The buffy coats containing white blood cells from 5 male human donors were resuspended in assay media and were pre-incubated for 30 min with either vehicle/saline, ketotifen 4.3 μg/ml (10 μM) and norketotifen 0.4 μg/ml, 4.1 μg/ml and 41 μg/ml (1.0; 10 and 100 μM). Following these preincubations, the white blood cells were stimulated for 16 hours with PHA, 5 μg/ml. The cell system supernatants were then harvested and stored frozen pending analyses.
(§3) The concentration of the test articles had to be high in this ex vivo study since the test kit used a high concentration of the agonist PHA (5 μg/ml) and a long exposure time (16 hrs).

TNFα = assay: PHA-induced TNFα release from human leucocytes (buffy coats); format: cell-based; details: Leucocyte, 30 min pre-incubation, PHA 5 μg/ml 16 hours
Protocol: as §1, §2, §3

IL-4 = assay: PHA-induced IL-4 release from human leucocytes (buffy coats); format: cell-based; details: Leucocyte, 30 min pre-incubation, PHA 5 μg/ml 16 hours
Protocol: as §1, §2, §3

IL-2 = assay: PHA-induced IL-2 release from human leucocytes (buffy coats); format: cell-based; details: Leucocyte, 30 min pre-incubation, PHA 5 μg/ml 16 hours
Protocol: as §1, §2, §3

IL-8 = assay: PHA-induced IL-8 release from human leucocytes (buffy coats); format: cell-based; details: Leucocyte, 30 min pre-incubation, PHA 5 μg/ml 16 hours
Protocol: as §1, §2, §3

IL-10 = assay: PHA-induced IL-10 release from human leucocytes (buffy coats); format: cell-based; details: Leucocyte, 30 min pre-incubation, PHA 5 μg/ml 16 hours
Protocol: as §1, §2, §3

IL-13 = assay: PHA-induced IL-13 release from human leucocytes (buffy coats); format: cell-based; details: Leucocyte, 30 min pre-incubation, PHA 5 μg/ml 16 hours
Protocol: as §1, §2, §3

INF-γ = assay: PHA-induced INF-γ release from human leucocytes (buffy coats); format: cell-based; details: Leucocyte, 30 min pre-incubation, PHA 5 μg/ml 16 hours
Protocol: as §1, §2, §3

MCP-1 = assay: PHA-induced MCP-1 release from human leucocytes (buffy coats); format: cell-based; details: Leucocyte, 30 min pre-incubation, PHA 5 μg/ml 16 hours
Protocol: as §1, §2, §3

MIP-1a = assay: PHA-induced MIP-1a release from human leucocytes (buffy coats); format: cell-based; details: Leucocyte, 30 min pre-incubation, PHA 5 μg/ml 16 hours
Protocol: as §1, §2, §3

[2] = system: human leucocytes (buffy coats); assay: Cytokine and chemokine release from stimulated human leucocytes, overall; format: cell-based; details: PHA 5 μg/ml, 16 hours
Protocol: as §1
as §2, with “analyses. […]” for “analyses.”

[3] = system: IL31-induced (SC) pruritus; assay: IL-31-induced pruritus in mice; format: in vivo; details: at the dose tested
Protocol: To determine if NK inhibits IL31-induced pruritus in mice. Studies have now been performed, using murine IL31 as a pruritogen. Mice were dosed orally with a test article exactly 60 minutes before murine IL31 at a dose of 1.0 μg/30 gram body weight was injected subcutaneously into a previously depilated area on the rostral part of the back of mice. IL31 was dissolved in phosphate buffered saline (PBS) with 0.1% bovine serum albumin (BSA). The injected volume was 0.1 ml/mouse. The bouts of scratching were counted for 120 min, starting 30 min after the injection of IL31. The bouts of scratching were counted by trained laboratory personnel who were unaware of the pretreatment of the animals. Oclacitinib (Apoquel®) is a Janus kinase inhibitor that is the worldwide market leader for oral treatment of atopic dermatitis in dogs.

sedation [4] = details: art-accepted mouse model of sedation; U.S. Pat. Nos. 7,226,934 and 7,557,128; cited from earlier work
sedation [5] = details: dogs, oral; U.S. Pat. No. 8,557,846; cited from earlier work

With O=C1Cc2ccccc2C(=C2CCNCC2)c2ccsc21 (racemic) [NK, norketotifen] the Scratching bouts ([1]; NK 10 mg/kg/day PO from 3 days before IMQ) was 7.0, the “Total Scores ± SEM” value ([1]; NK 10 mg/kg/day oral) was 1.5 ± 0.65 and the “Mean Scores of Skin Lesions: Redness” value ([1]; NK 10 mg/kg/day oral) was 0.75. The “Mean Scores of Skin Lesions: Scaling” value ([1]; NK 10 mg/kg/day oral) was 0.25, the “Mean Scores of Skin Lesions: Thickness” value ([1]; NK 10 mg/kg/day oral) was 0.5 and the Scratching bouts ([1]; NK 20 mg/kg/day PO from 3 days before IMQ) was 4.25. For the same compound, the “Total Scores ± SEM” value ([1]; NK 20 mg/kg/day oral) was 0.5 ± 0.29, the “Mean Scores of Skin Lesions: Redness” value ([1]; NK 20 mg/kg/day oral) was 0.5 and the “Mean Scores of Skin Lesions: Scaling” value ([1]; NK 20 mg/kg/day oral) was 0. For the same compound, the “Mean Scores of Skin Lesions: Thickness” value ([1]; NK 20 mg/kg/day oral) was 0, the “Total Scores ± SEM” value ([1]; NK 30 mg/kg/day oral) was 0.33 ± 0.33 and the “Mean Scores of Skin Lesions: Redness” value ([1]; NK 30 mg/kg/day oral) was 0.33. The “Mean Scores of Skin Lesions: Scaling” value ([1]; NK 30 mg/kg/day oral) was 0, the “Mean Scores of Skin Lesions: Thickness” value ([1]; NK 30 mg/kg/day oral) was 0 and the “Inhibition of psoriasis-related cytokine storm (in words)” value ([1]; antipruritic activity and redness, thickness, scaling scores) was “almost completely inhibited”. For the same compound, the “Effect on scratching in mice (in words)” value ([1]; oral NK, not statistically significant (p>0.05)) was “dose-dependent effect”, the inhibition at 1 µM (IL-1β; 1 uM) was 0% and the inhibition at 10 µM (IL-1β; 10 uM) was 16.2%. For the same compound, the inhibition at 100 µM (IL-1β; 100 uM) was 57%, the inhibition at 1 µM (TNFα; 1 uM) was 4.54% and the inhibition at 10 µM (TNFα; 10 uM) was 42.2%. It also gave an inhibition at 100 µM (TNFα; 100 uM) of 89.1%, an inhibition at 1 µM (IL-4; 1 uM) of 0% and an inhibition at 10 µM (IL-4; 10 uM) of 14.3%. The inhibition at 100 µM (IL-4; 100 uM) was 98.3%, the inhibition at 1 µM (IL-2; 1 uM) was 0% and the inhibition at 10 µM (IL-2; 10 uM) was 46.6%. For the same compound, the inhibition at 100 µM (IL-2; 100 uM) was 93.5%, the inhibition at 1 µM (IL-8; 1 uM) was 10.3% and the inhibition at 10 µM (IL-8; 10 uM) was 34.4%. For the same compound, the inhibition at 100 µM (IL-8; 100 uM) was 78.3%, the inhibition at 1 µM (IL-10; 1 uM) was 12.7% and the inhibition at 10 µM (IL-10; 10 uM) was 24.8%. For the same compound, the inhibition at 100 µM (IL-10; 100 uM) was 90.4%, the inhibition at 1 µM (IL-13; 1 uM) was 0% and the inhibition at 10 µM (IL-13; 10 uM) was 34.5%. The inhibition at 100 µM (IL-13; 100 uM) was 74.2%, the inhibition at 1 µM (INF-γ; 1 uM) was 0% and the inhibition at 10 µM (INF-γ; 10 uM) was 16.5%. It also gave an inhibition at 100 µM (INF-γ; 100 uM) of 71.6%, an inhibition at 1 µM (MCP-1; 1 uM) of 2.04% and an inhibition at 10 µM (MCP-1; 10 uM) of 14.3%. It also gave an inhibition at 100 µM (MCP-1; 100 uM) of 84.5%, an inhibition at 1 µM (MIP-1a; 1 uM) of 9.53% and an inhibition at 10 µM (MIP-1a; 10 uM) of 25.9%. The inhibition at 100 µM (MIP-1a; 100 uM) was 91%, the “Inhibition of release of cytokines and chemokines from human white blood cells (in words)” value [2] was “dose-dependently inhibited” and the “Effect on IL-31-induced pruritus (in words)” value [3] was “decreased IL-31-induced pruritus”. The Sedative effects (sedation [4]) was “significant sedative effects” and the Sedative side effects (sedation [5]) was “free from sedative side effects”.
